Measured values as given in patent US9572785B2, “DP2 antagonist and uses thereof” (Brickell Biotech, Inc., priority 2009, dated 2017).
≈ marks a conversion by molar mass, not a printed value. Like-named read-outs stand apart in the source and are kept apart here.

Tests used:
mouse DP2 receptor = target: T1, mouse DP2 receptor (Mus musculus, UniProt Q9Z2J6); assay: DP2 radioligand membrane binding assay, mouse
T1 construct: expressed in transfected cells
T1 sequence (Q9Z2J6 1-382): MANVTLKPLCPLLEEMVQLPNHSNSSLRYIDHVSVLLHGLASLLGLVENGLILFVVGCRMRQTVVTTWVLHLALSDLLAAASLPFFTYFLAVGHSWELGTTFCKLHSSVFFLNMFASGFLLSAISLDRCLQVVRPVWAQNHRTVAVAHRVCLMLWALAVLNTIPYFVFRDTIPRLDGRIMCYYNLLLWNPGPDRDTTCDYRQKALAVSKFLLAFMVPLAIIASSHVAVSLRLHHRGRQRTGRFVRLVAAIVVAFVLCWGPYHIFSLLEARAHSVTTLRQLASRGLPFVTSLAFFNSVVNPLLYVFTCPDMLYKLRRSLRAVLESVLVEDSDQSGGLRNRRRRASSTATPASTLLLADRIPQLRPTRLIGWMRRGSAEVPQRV
Protocol: (§1) HEK293 cells stably expressing recombinant human DP2 are resuspended in 10 mM Hepes, 7.4 containing 1 mM DTT, lysed and centrifuged at 75,000×g to pellet the membranes. The membranes are resuspended in 10 mM Hepes, 7.4 containing 1 mM DTT and 10% glycerol to approximately 5 mg protein/ml. […] The reactions are terminated by rapid filtration through Whatman GF/C glass fibre filter plates. […] After harvesting, the filter plates are washed 3 times with 1 ml cold Wash Buffer then dried. Scintillant is then added to the plates and the radioactivity retained on the filters is determined on a Packard TopCount (Perkin Elmer). Specific binding is determined as total radioactive binding minus non-specific binding in the presence of 10 μM PGD2. IC50s were determined using GraphPad prism analysis of drug titration curves. Mouse, rat and guinea pig DP2 receptors were also investigated.

in vivo = conditions: mouse, plasma, po, 10 mg/kg
physchem = conditions: water, 25 °C, pH 6.1, water, thermodynamic from solid
Protocol: The suspension was equilibrated at 25° C. for 24 hours then the pH was measured. The suspension was then filtered through a glass fibre C filter into a 96 well plate. The filtrate was then diluted by an appropriate factor. Quantitation was by HPLC with reference to a standard solution of approximately 0.1 mg·ml^−1 in DMSO. Different volumes of the standard, diluted and undiluted sample solutions were injected.
Analysis was performed on an Agilent HP1100 series system equipped with a diode array detector and using ChemStation software vB.02.01-SR1.

DP2 receptor [1] = target: T2, DP2 receptor (Homo sapiens, UniProt Q9Y5Y4); assay: In vitro DP2/CRTH2 radioligand binding assay ([3H]PGD2), human; parameters: expressed in transfected cells
T2 sequence (Q9Y5Y4 1-395): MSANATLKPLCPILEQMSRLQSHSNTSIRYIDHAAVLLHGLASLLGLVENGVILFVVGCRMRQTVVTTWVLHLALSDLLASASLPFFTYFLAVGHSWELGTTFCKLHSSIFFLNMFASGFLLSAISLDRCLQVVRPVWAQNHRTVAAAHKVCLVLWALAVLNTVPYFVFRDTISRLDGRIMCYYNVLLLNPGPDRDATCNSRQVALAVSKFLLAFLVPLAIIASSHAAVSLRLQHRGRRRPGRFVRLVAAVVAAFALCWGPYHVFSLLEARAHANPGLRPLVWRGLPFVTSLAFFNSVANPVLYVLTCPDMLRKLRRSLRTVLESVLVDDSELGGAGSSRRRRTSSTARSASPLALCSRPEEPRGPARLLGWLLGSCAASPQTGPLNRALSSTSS
Protocol: as §1

DP2 receptor [2] = target: T2, DP2 receptor; assay: Whole blood eosinophil shape change (ESC) assay, human; format: cell-based; parameters: endogenous in cells; host or cells: eosinophils in human whole blood
Protocol: Blood is drawn from consenting human volunteers in EDTA vacutainer tubes and used within 1 hr of draw. […] The blood is vortexed and incubated at 37° C. for 5 minutes. 5 μl of 1 μM PGD2 in PBS is added for a final concentration of 50 nM and the tubes briefly vortexed. The reactions are incubated for exactly 5 minutes at 37° C. and then terminated by placing the tubes on ice and immediately adding 250 μl of ice-cold 1:4 diluted Cytofix (BD Biosciences). The reactions are transferred to 12×75 mM polystyrene round bottom tubes and the red blood cells lysed by the addition of 3 ml ammonium chloride lysing solution (150 mM NH4Cl, 10 mM KHCO3, 0.1 mM EDTA disodium salt) and incubation at room temperature for 15 minutes. The cells are pelleted by spinning at 1300 rpm for 5 minutes at 4° C. and washed once with 3 ml ice-cold PBS. The cells are resuspended in 0.2 ml of ice-cold 1:4 diluted Cytofix (BD Biosciences) and analyzed on a FACSCalibur (BD Biosciences) within 2 hours. Eosinophils were gated on the basis of autofluorescence in the FL2 channel and shape change on 500 eosinophils was assayed by forward scatter and side scatter analysis. The specific change in shape induced by PGD2 was calculated as the difference between the percentage of high forward scatter eosinophils in the presence and absence of PGD2.

SMILES: CCN(Cc1cc(C(F)(F)F)ccc1-c1cc(CC(=O)O)ccc1OC)C(=O)NCc1ccccc1 [Compound 1, [2′-(3-benzyl-1-ethyl-ureidomethyl)-6-methoxy-4′-trifluoromethyl-biphenyl-3-yl]-acetic acid]
- IC50 (mouse DP2 receptor; mouse DP2, membrane binding, read-out: average IC50, inhibition of radiolabeled PGD2 binding): 7.8 nM
- IC50 (mouse DP2 receptor; mouse DP2 receptor, in the presence of 0.2% mouse serum albumin, read-out: IC50, radioligand membrane binding): 20.1 nM
- increase in 4-hydroxydiclofenac (CYP2C9) production compared to native cells (CYP2C9): 1.1 fold
- concentration at 1 h (in vivo): 280 nM
- concentration at 2 h (in vivo): 150 nM
- concentration at 4 h (in vivo): 70 nM
- concentration at 8 h (in vivo): 30 nM
- concentration at 24 h (in vivo): < 8 nM
- solubility at 24 h (physchem): 210 µg/mL (≈ 420 µM)
- IC50 (DP2 receptor [1]; human DP2, membrane binding, read-out: average IC50, inhibition of radiolabeled PGD2 binding): 4.9 nM
- IC50 (DP2 receptor [1]; with human serum albumin, read-out: IC50, DP2 receptor binding): 12.2 nM
- IC90 (DP2 receptor [2]): 7.5 nM
- IC50 (DP2 receptor [2]; read-out: IC50, PGD2-induced eosinophil shape change): 2.7 nM
